Consider 1 molecule from PMC6332093, “Development of Radiolabeled Membrane Type-1 Matrix Metalloproteinase Activatable Cell Penetrating Peptide Imaging Probes” (Molecules, 2015).

This test deals with MT1-MMP (Homo sapiens, UniProt P50281). Put plainly: MT1-MMP sensitivity of ACPP probes (LC-MS). Conditions: peptide 0.1 mM, MT1-MMP 0.13 µM (method section: 15 nM), 60 min, 37 °C, 50 mM Tris, 200 mM NaCl, 10 mM CaCl2, 10 µM ZnCl2, pH 7.5, LC-MS; cleavage between Asn and Leu. It is filed as biochemical. On the procedure:
The peptides ACPP-A, ACPP-B, and ACPP-C (without SHPP functionality) were screened for MT1-MMP sensitivity by incubating the peptides (0.1 mM) with MT1-MMP (0.13 µM) for 60 min. For ACPP-A, a small fraction (<5%) of the peptide was cleaved between the asparagine and leucine residue (Figure 3A). […] ACPP-A analogs (a peptide probe lacking the 5-amino-3-oxapentanoic acid linker residues and its linear analog) were also synthesized and tested for MT1-MMP sensitivity, showing also a low degree of activation (Figure S2). Accordingly, a recent study found a poor response of a genetically encoded MT1-MMP biosensor employing the same substrate. […] Therefore, further in-depth analysis of the MT1-MMP specificity and in vivo characteristics of ACPP-A was not performed.
Figure 3 LC-MS characterization of ACPP-A, ACPP-B, and ACPP-C (0.1 mM) incubated with MT1-MMP (0.13 µM) for 60 min. The left and right graphs show the UV absorbance chromatogram and the mass spectra of the UV-peaks bracketed by the arrowheads, respectively. […]
ACPP-A, ACPP-B, and ACPP-C (0.1 mM) were incubated with 15 nM MT1-MMP in a mixture of 50 mM Tris, 200 mM NaCl, 10 mM CaCl2 and 10 µM ZnCl2 at pH 7.5 at 700 rpm and 37 °C. After 1 h, the enzyme was quenched by the addition of TFA (10% v/v), and the reaction mixture was analyzed by LC-MS.

Take `CC(=O)N[C@H](Cc1ccc(O)cc1)C(=O)N[C@H](CCC(=O)O)C(=O)N[C@H](CCC(=O)O)C(=O)N[C@H](CCC(=O)O)C(=O)N[C@H](CCC(=O)O)C(=O)N[C@H](CCC(=O)O)C(=O)N[C@H](CCC(=O)O)C(=O)N[C@H](CCC(=O)O)C(=O)N[C@H](CCC(=O)O)C(=O)N[C@H](CCC(=O)O)C(=O)NCCOCC(=O)N[C@H]1CSSC[C@@H](C(=O)N[C@@H](CC(N)=O)C(=O)N[C@@H](CC(C)C)C(=O)N[C@@H](Cc2ccccc2)C(=O)N[C@H](C(=O)N[C@@H](CC(C)C)C(=O)N[C@@H](CCCCN)C(=O)N[C@@H](CC(=O)O)C(=O)NCCOCC(=O)N[C@H](CCCNC(=N)N)C(=O)N[C@H](CCCNC(=N)N)C(=O)N[C@H](CCCNC(=N)N)C(=O)N[C@H](CCCNC(=N)N)C(=O)N[C@H](CCCNC(=N)N)C(=O)N[C@H](CCCNC(=N)N)C(=O)N[C@H](CCCNC(=N)N)C(=O)N[C@H](CCCNC(=N)N)C(=O)N[C@H](CCCNC(=N)N)C(=O)N[C@H](CCNC(=O)CN2CCN(CC(=O)O)CCN(CC(=O)O)CCN(CC(=O)O)CC2)C(N)=O)C(C)C)NC(=O)[C@H](CO)NC(=O)[C@H](CCC(=O)O)NC(=O)[C@H](CCCCN)NC(=O)[C@@H]2CCCN2C1=O` [ACPP-A, Ac-y-e9-X-C*PKESC*NLFVLKD-X-r9-dab(DOTA)-NH2]: the “fraction of the peptide cleaved by MT1-MMP” value was below 5%.
